In one series the test system is breast carcinomas. The series can be described thus: Spontaneous ductal breast carcinomas in transgenic mice (FIG. 9). Format: in vivo, FVB/N c-neu mice. Here is the method:
The transgenic FVB/N c-neu female mice with spontaneous small breast carcinomas were treated with MitoVES at 3 μmol per mouse per dose and the tumour volume was assessed by repeated ultrasound imaging, monitoring tumour growth over several weeks.
For this purpose, the transgenic FVB/N c-neu mice that form spontaneous ductal breast carcinomas due to high level of expression of the oncogene, HER2 were used as a cancer model.

The next series concerns EAhy926 cells. Briefly: Apoptosis in proliferating and arrested endothelial cells (FIG. 6). The class given is cell-based, human. The note with it: EAhy926 at ~50% or 100% confluency. As to the method: Parental EAhy926 cells were seeded in 24-well plate so that they would acquire after an overnight recuperation ˜50% or 100% confluency, while their ρ^0 counterparts were seeded at 50% confluency. The proliferating and confluent cells were then exposed to MitoVES at concentrations and for times shown, and assessed for apoptosis level by the Annexin V-binding method (A) and for ROS accumulation using the fluorescent probe DHE (B).
Toxicity of α-TOS, VE11S (“VES”), MitoVE3S, MitoVE5S, MitoVE7S, MitoVE9S, MitoVE11S (“MitoVES”), MitoVE11AE (“MitoVEAE”), MitoVE11F (“MitoVEF”), MitoVE11M (“MitoVEM”), and VES4TPP towards cancer cells was assessed on the basis of IC50, as detailed in Turanek, J., et al. ((2008). Liposomal formulation of vitamin E analogs as an efficient and selective anti-cancer treatment. Clin. Cancer Res. (submitted)). […]

For another series, the system named is MS cells. The series can be described thus: ROS production by flow cytometry, mammosphere cells (FIG. 8). Format: cell-based, human. Conditions: 3 h; α-TOS 50 μM, MitoVES homologues 5 μM. Here is the method: Adherent MCF7 cells and the corresponding mammosphere cells (MS) were cultured and assessed for morphological changes by microscopy (A) and for expression levels of markers as indicators of “sternness” by RT-PCR (B) and flow cytometry (C), including the expression of CD44 and CD24 (D). The adherent MCF7 cells (E) and the MS cells (F) were treated with 5 μM MitoVES, 50 μM α-TOS or 10 μM parthenolide and assessed for their sensitivity to drug induced cell death. […] Adherent MCF7 cells (I) and MS cells (J) were treated for 3 h with α-TOS (50 μM) or MitoVES homologues containing different lengths in the aliphatic side chain (5 μM each, either 11, 7 or 5 carbon chain in length) and the treated cells assessed for production of reactive oxygen species (ROS) by flow cytometry.
Cellular ROS were detected indirectly by flow cytometry and directly by electron paramagnetic resonance (EPR) spectroscopy, following treatment of cells with α-TOS as indicated in the Legend to Figures. […] For indirect evaluation, cells were treated with α-TOS and reacted with dihydrodichlorofluorescein diacetate (DCF; Molecular Probes) for 30 min, and scored by flow cytometry for cells with high fluorescence, which was evaluated on the bases on increase in mean fluorescence intensity. […]

The test system of another series is T lymphoma cells. Conditions: medium pH ~6.2 compared to pH 7.2; cited from earlier work.
The conditions of series [1]: pH 6.2 versus pH 7.4 of the medium; cited from earlier work.

As to `Cc1c(C)c2c(c(C)c1OC(=O)CCC(=O)[O-])CCC(C)(CCCCCCCCCCC[P+](c1ccccc1)(c1ccccc1)c1ccccc1)O2` (stereo not shown) [MitoVE11S], in the series with breast carcinomas (3 μmol per mouse per dose, tumour volume by ultrasound imaging), the “progression of breast cancer tumours” value is “completely blocked progression”. Also, the “toxicity in treated animals” value with breast carcinomas (FVB/N c-neu mice) is “no obvious sign of toxicity”. Moreover, the “fold lower concentrations than needed for corresponding activity of α-TOS” value in the series on breast carcinomas (relative to α-TOS) is listed as ~10 fold. Further, the “apoptosis in proliferating versus arrested endothelial cells” value in the series on EAhy926 cells was “causes apoptosis in proliferating but not arrested endothelial cells”.
Turning to `Cc1c(C)c2c(c(C)c1OC(=O)CCC(=O)O)CC[C@@](C)(CCC[C@H](C)CCC[C@H](C)CCCC(C)C)O2` [α-TOS, α-tocopheryl succinate, reference compound], in the series on MS cells, the “ROS production in MS cells” value is reported as “much lower levels”. In addition, the “greater apoptogenic efficacy at acidic pH” value in the series on T lymphoma cells is reported as ~3 times. Besides, the “uptake of the compound at lower pH” value in series [1] is recorded as “about twice as much”.

The record behind these values is patent US8598145B2, “Mitochondrially delivered anti-cancer compounds” (priority 2008, dated 2013).
